Laboratory results: patent US20070190060A1, “Passive targeting of cytotoxic agents” (Wyeth, priority 2004, published 2007)
Values joined by “and” are separate entries in the source; they are usually repeats but may differ in a detail not shown here. Equal values may be shown once.

How the values were obtained:
[1] = tested on: A431 epidermoid carcinoma xenografts; assay: Tumor growth inhibition, subcutaneous A431 xenografts; assay type: in vivo, athymic nude mice; conditions: for average tumor size as % of the control tumors: intravenous, twenty-seven days following onset of therapy
Experimental: (§1) Subcutaneous tumors of N87, LOVO, A431/Le^y, LS174T and L2987 were grown in athymic nude mice (Charles River, Wilmington, Mass.). Two-month-old female mice were injected with respectively 5×10^6 N87, LOVO, A431/Le^y or LS174T cells per mouse. L2987 cells were injected in male nude mice that were between 7 and 8 weeks old. To grow tumors, N87 cells had to be mixed (1:1, vol/vol) with […]® (Collaborative Biomedical Products, Belford, Mass.) prior to injection. Two perpendicular diameters of the tumor were measured by means of calipers at time intervals specified in the result section. The tumor volume was calculated according to the formula of Attia&Weiss: A^2×B×0.4. A and B are symbols for the smaller and the larger tumor diameter, respectively.
[…] Mice with xenografts of approximately 80 mm^3 were selected prior to treatment. The amounts of CalichDMH or conjugate given are expressed in calicheamicn equivalents.
Both T and C are determined at the same day following initiation of treatment.

N87 xenografts = assay: Tumor growth inhibition, subcutaneous N87 xenografts; assay type: in vivo, athymic nude mice
Experimental: as §1, with “respectively. The treatment schedules, dose and number of mice per group are specified in the result section and in the figure legends.” for “respectively.”
(§2) As shown in Table 2 (tumor volume reduction of CD33-tumor xenografts following treatment (T) with hp67.6-AcBut-CalichDMH and expressed as a percentage of controls treated with vehicle (T/C %)), hp67.6-AcBut-CalichDMH inhibited tumor growth of human tumor xenografts with diverse histiotypic origin. […] This value is the average tumor volume of a group of mice that were treated with hp67.6-AcBut-CalichDMH (T) expressed as a percentage of the average tumor volume of a control group (C). Both T and C are determined at the same day following initiation of treatment. The T/C-values in table II were derived from 27 independent experiments and were determined between 17 and 34 days after injection of the first dose of hp67.6-AcBut-CalichDMH. […] Significant inhibition was also observed when lower amounts of the conjugate were administered.

PC3MM2 xenografts = assay: Tumor growth inhibition, subcutaneous PC3MM2 xenografts; assay type: in vivo, athymic nude mice; conditions: 4.00 μg per dose, Q4D×3, 29 days after first dose
LOVO xenografts = assay: Tumor growth inhibition, subcutaneous LOVO xenografts; assay type: in vivo, athymic nude mice; conditions: for T/C (%): LOVO, 4.00 μg per dose, Q4D×3
Experimental: as §1, with “respectively. The treatment schedules, dose and number of mice per group are specified in the result section and in the figure legends.” for “respectively.”
as §2

KB 8.5 xenografts = assay: Tumor growth inhibition, subcutaneous KB 8.5 xenografts; assay type: in vivo, athymic nude mice; conditions: 4.00 μg per dose, Q4D×3, 22 days after first dose
MDAMB435/5T4 xenografts = assay: Tumor growth inhibition, subcutaneous MDAMB435/5T4 xenografts; assay type: in vivo, athymic nude mice
[2] = In vivo distribution of 125I-labeled conjugate in A431 tumor-bearing mice; parameters: species or system female nude mice
Experimental: Gemtuzumab ozogamicin was labeled with ^125I using the Bolton-Hunter reagent (NEN, Boston, Mass.). A group of 30 tumor-bearing female nude mice were injected in the lateral tail vein with ^125I-labeled conjugate 20 μCi/[…]. The tumor weight at the time of injection was approximately 1 g. Groups of 5 mice were killed by CO2 inhalation at 2, 6, 24, 48, 72 and 96 h following the injection. The amount of γ radiation in the tissues as specified in FIG. 2 was determined at these time points. Biodistribution of the conjugate was expressed as a percentage of the injected dose per gram tissue (% ID/g) or as a percentage of the blood level at a given time point (% Blood). Steadily increasing concentrations of hp67.6-AcBut-CalichDMH were exclusively observed in tumor tissue. The doubling time of accumulation is 150 h for A431 tumors.
The kinetics of hp67.6-AcBut-CalichDMH in various mouse tissues and in CD33-negative A431-tumor xenografted tumor were compared. Following injection of 200 µg (20 μCi) ^125I labeled conjugate, the amount of radioactive label was measured in various tissues at 2, 6, 24, 48, 72 and 96 h (FIG. 2). The amount of radioactive material was expressed relative to the amount present in whole blood at the time of measurement (% Blood, Y1 axes in FIG. 2). Percent blood (% Blood) is given by the formula, 100×Bq per gram tissue/Bq per gram blood. In addition, the amount of radioactive material was also expressed relative to total amount of conjugate given (% ID/g, Y2 axes in FIG. 2). Only a marginal amount of 125I labeled conjugate is retained in the brain. […] The % Blood was on average 3.5%.

HT29 xenografts = assay: Tumor growth inhibition, subcutaneous HT29 xenografts; assay type: in vivo, athymic nude mice; conditions: 4.00 μg per dose, Q4D×3, 33 days after first dose
A431/Le^Y xenografts = assay: Tumor growth inhibition, subcutaneous A431/LeY xenografts; assay type: in vivo, athymic nude mice
Experimental: as §1, with “respectively. […]” for “respectively.”
As shown in Table 2 (tumor volume reduction of CD33-tumor xenografts following treatment (T) with hp67.6-AcBut-CalichDMH and expressed as a percentage of controls treated with vehicle (T/C %)), hp67.6-AcBut-CalichDMH inhibited tumor growth of human tumor xenografts with diverse histiotypic origin. […] This value is the average tumor volume of a group of mice that were treated with hp67.6-AcBut-CalichDMH (T) expressed as a percentage of the average tumor volume of a control group (C). Both T and C are determined at the same day following initiation of treatment. […]

L2987 xenografts = assay: Tumor growth inhibition, subcutaneous L2987 xenografts; assay type: in vivo, athymic nude mice
Experimental: as §1, with “respectively. The treatment schedules, dose and number of mice per group are specified in the result section and in the figure legends.” for “respectively.”
as §2

LNCaP xenografts = assay: Tumor growth inhibition, subcutaneous LNCaP xenografts; assay type: in vivo, athymic nude mice
PC14PE6 xenografts = assay: Tumor growth inhibition, subcutaneous PC14PE6 xenografts; assay type: in vivo, athymic nude mice
[3] = intraperitoneally Q4D×3, equivalent or higher doses than hp67.6-AcBut-CalichDMH (FIGS. 1B and 1C)
[4] = intravenous administration, same dose, frequency and interval (Q4D×3)
[5] = 1.00 μg per dose, 28 days after first dose
[6] = 2.00 μg per dose, 28 days after first dose
[7] = 2.00 μg per dose, 30 days after first dose
[8] = 4.00 μg per dose, Q4D×3, 28 days after first dose
[9] = 4.00 μg per dose, Q4D×3, 30 days after first dose
[10] = 2.00 μg per dose, 29 days after first dose
[11] = 4.00 μg per dose, Q4D×3, 29 days after first dose

Compound: CCN(C(C)=O)[C@H]1CO[C@@H](O[C@H]2[C@H](O[C@H]3C#C/C=C\C#C[C@]4(O)CC(=O)C(NC(=O)OC)=C3/C4=C\CSSC(C)(C)CC(=O)NN)O[C@H](C)[C@@H](NO[C@H]3C[C@H](O)[C@H](SC(=O)c4c(C)c(I)c(O[C@@H]5O[C@@H](C)[C@H](O)[C@@H](OC)[C@H]5O)c(OC)c4OC)[C@@H](C)O3)[C@@H]2O)C[C@@H]1OC [CalichDMH, N-acetyl-γ-calicheamicin dimethyl hydrazide]
- tumor growth inhibition of A431 xenografts [1, 3]: did not inhibit tumor growth
- tumor growth inhibition of A431 xenografts [1, 4]: did not yield significant tumor growth inhibition

Compound: hp67.6-AcBut-CalichDMH: antibody against CD33 (hp67.6) bound to N-acetyl gamma calicheamicin dimethyl hydrazide by the acid labile AcBut linker
- T/C (%) (N87 xenografts; [5]): 55%
- T/C (%) (N87 xenografts; [6]): 41%
- T/C (%) (N87 xenografts; [7]): 54%
- T/C (%) (N87 xenografts; 4.00 μg per dose, Q4D×3, 27 days after first dose): 19%
- T/C (%) (N87 xenografts; [8]): 60%
- T/C (%) (N87 xenografts; [9]): 48%
- T/C (%) (N87 xenografts; 4.00 μg per dose, Q4D×3, 31 days after first dose): 39%
- T/C (%) (N87 xenografts; 4.00 μg per dose, Q4D×3, 33 days after first dose): 39% and 42%
- T/C (%) (PC3MM2 xenografts): 33%
- T/Cmin value (minimum T/C-value observed during an experiment) (LOVO xenografts; LOVO colon carcinoma, 4 μg CalichDMH per mouse, intraperitoneally Q4D×3 (FIG. 5)): exceptionally high
- T/C (%) (LOVO xenografts; 25 days after first dose): 80%
- T/C (%) (LOVO xenografts; 29 days after first dose): 47% and 76%
- growth of A431 xenografts ([1]; 3 doses of 4 μg, intraperitoneally Q4D×3, up to 27 days following treatment): significantly (p=0.03) inhibited
- T/C (%) ([1]; A431, 1.00 μg per dose, 27 days after first dose): 146%
- T/C (%) ([1]; A431, 2.00 μg per dose, 27 days after first dose): 72%
- time xenografts remained significantly (p=0.004) smaller than the controls ([1]; A431, 2 μg/dose, intraperitoneally Q4D×3 (FIG. 1A)): 21 days
- T/C (%) ([1]; A431, 4.00 μg per dose, Q4D×3, 27 days after first dose): 21% and 35%
- T/C (%) ([1]; A431, 4.00 μg per dose, Q4D×3, 28 days after first dose): 12%
- average tumor size as % of the control tumors ([1]; A431, 2 μg Q4D×3): 23%
- average tumor size as % of the control tumors ([1]; A431, 4 μg Q4D×3): 11%
- tumor growth inhibition of A431 xenografts [1, 4]: Significant growth inhibition
- T/C (%) (KB 8.5 xenografts): 27%
- T/C (%) (MDAMB435/5T4 xenografts; [10]): 45%
- T/C (%) (MDAMB435/5T4 xenografts; [11]): 32%
- T/C (%) (MDAMB435/5T4 xenografts; 4.00 μg per dose, Q4D×3, 34 days after first dose): 30%
- % ID/g value in function of time, tumor tissue ([2]; A431 tumor tissue, 2 to 96 h): steady increase
- doubling time of accumulation in tumor ([2]; A431 tumors, 125I-labeled conjugate, lateral tail vein): 150 h
- % Blood (100×Bq per gram tissue/Bq per gram blood), brain, on average ([2]; brain, within 96 hours, 125I-labeled conjugate): 3.5%
- time of highest % Blood-value ([2]; heart, intestine and spleen, after injection, then steadily decreased): 2 h
- time of peak of the % Blood-value ([2]; liver and striated muscle): 48 h
- % ID/g in function of time, all the other tissues examined ([2]; normal tissues, 2 to 96 h): decreased in function of time
- time after which % Blood-value reached a plateau ([2]; skin): 24 h
- T/C (%) (HT29 xenografts): 36%
- T/C (%) (A431/Le^Y xenografts; [10]): 37%
- T/C (%) (A431/Le^Y xenografts; [11]): <1%
- T/C (%) (L2987 xenografts; 0.75 μg per dose, 21 days after first dose): 33%
- T/C (%) (L2987 xenografts; 1.50 μg per dose, 21 days after first dose): 77%
- T/C (%) (L2987 xenografts; [7]): 5%
- T/C (%) (L2987 xenografts; 3.00 μg per dose, 21 days after first dose): 5%
- T/C (%) (L2987 xenografts; [9]): 1%
- T/C (%) (L2987 xenografts; 4.00 μg per dose, Q4D×3, 35 days after first dose): 1%
- T/C (%) (LNCaP xenografts; 0.50 μg per dose, 28 days after first dose): 102%
- T/C (%) (LNCaP xenografts; [5]): 59%
- T/C (%) (LNCaP xenografts; [6]): 30%
- T/C (%) (LNCaP xenografts; [10]): 34%
- T/C (%) (LNCaP xenografts; [8]): 24%
- T/C (%) (LNCaP xenografts; [11]): 7%
- T/C (%) (PC14PE6 xenografts; 1.00 μg per dose, 29 days after first dose): 52%
- T/C (%) (PC14PE6 xenografts; 2.00 μg per dose, 17 days after first dose): 59%
- T/C (%) (PC14PE6 xenografts; [10]): 42%
- T/C (%) (PC14PE6 xenografts; 4.00 μg per dose, Q4D×3, 17 days after first dose): 27%
- T/C (%) (PC14PE6 xenografts; 4.00 μg per dose, Q4D×3, 22 days after first dose): 15%
- T/C (%) (PC14PE6 xenografts; [11]): 14%

Compound: hp67.6-Amide-CalichDMA: hp67.6 linked to CalichDMA with the acid stabile Amide (4-mercapto-4-methyl-pentanoic acid) linker
- tumor growth inhibition of A431 xenografts [1, 3]: did not inhibit tumor growth
- tumor growth inhibition of A431 xenografts [1, 4]: did not yield significant tumor growth inhibition
